Test results: patent US9643933B2, “Compounds useful as antibiotic tolerance inhibitors” (priority 2013, dated 2017)
Counter-ions that a name gives are not always drawn.

Columns and labels:
[1] = test system: PQS; assay: PQS Inhibition Assay (24 Hour Incubation); format: cell-based, P. aeruginosa PA14 wild-type strain; settings: Pseudomonas aeruginosa, PA14, 24 h, read-out: PQS (24 hr) IC50 (μM)
Procedure: Test compounds are dissolved in DMSO at 10 mM and stored at −20° C. until needed. Seven test concentrations from 0.0032 micromolar to 31.6 micromolar are used for each compound. P. aeruginosa PA14 wild-type strain is inoculated into 5 mL LB broth in a 15-mL sterile glass culture tube and incubated overnight at 37° C. under shaking (˜240 rpm). The overnight culture is then diluted in LB Broth to give an OD600=0.04 (T0 culture). Colony Forming Units (CFU)/mL of the overnight culture and T0 culture are determined by a series of 1:10 serial dilutions in sterile saline. 4×20 μL of each dilution is seeded on LB agar plates and incubated at 35±2° C. for 20 hours. CFU/mL is determined from the dilution that gives 2 to 50 colonies/20 μL.
For concentration response curve (CRC) experiments, internal standard (2-((5-nitro-1H-indol-2-yl)thio)-N-(4-phenoxyphenyl)acetamide)) and test compounds are serially diluted in DMSO to give 200 times of each final concentration (0.5% DMSO final), and 1 μL/well is dispensed in duplicate into 2-mL wells of a 96 well deep well plate. 200 μL/well of T0 culture is added to each internal standard/test compound well used to determine PQS control level. Wells containing only LB broth (blank wells) are also included in the plate.
The plate is sealed and incubated at 37° C. for 24 hours under shaking (˜700 rpm) using a microtiter shaker. At the end of the incubation period, 150 μL/well of the deep well plate culture are transferred in a new non-sterile plate, and 150 μL/well of methanol containing tetra-deuterated PQS (D4-PQS) and 2% acetic acid are added to each well. The plate is sealed, shaken at high speed for 5 minutes and centrifuged at 4,000 g for 40 minutes at room temperature. 100 μL/well of the supernatant is then transferred to glass vials (vials crimp 0.2 mL) and kept at 4° C. until LC-MS/MS analysis.
PQSs quantification is carried out by analyzing samples in discrete batches together with spiked standards and blank samples.
Calibration curves are constructed from PQS standards, and respective deuterated PQS is used as an Internal Standards (IS) to calculate the concentration of analytes in the sample and improve the precision of the assay. The back-calculated concentrations of the calibration standards from the calibration curve shall be within ±20% of the nominal values, the range of the analytical method is determined, and the lower and upper limit of quantification specified.
Liquid chromatography separations are performed using an Agilent HP1100 system (Agilent Technologies) coupled with a CTC PAL Autosampler (CTC Analytics AG). Chromatographic retention is obtained using a monolithic column (Chromolith® RP-18, 50×4.6 mm). The solvent system consists of water containing 0.1% (v/v) formic acid (A) and acetonitrile containing 0.1% (v/v) formic acid (B). The gradient elution profile is chosen as follows: 0 min: 70% A (1500 μL/min), 0.3 min: 70% A (1500 μL/min), 1.3 min: 5% A (2500 μL/min), 1.6 min: 5% A (2500 μL/min).
The MS/MS analysis is performed with an API4000 series mass spectrometer (AB Sciex™) operating in Multiple Reaction Monitoring (MRM) mode and equipped with a TIS ion source. The specific ions monitored are PQS (m/z 260→m/z 175) and D4-PQS (m/z 264→m/z 179). The computer systems used in this study to acquire and quantify data may be an Analyst™ v1.5.
PQS in the presence of different concentrations of test compound are expressed as percentage of inhibition of the basal level in control samples. Curve fitting and IC50 estimations are carried out using a four parameter logistic model using GraphPad Prism v.5 program.

[2] = test system: Pyocyanin; assay: Pyocyanin Inhibition Assay; format: cell-based, P. aeruginosa, strain PA14; settings: Pseudomonas aeruginosa, PA14, 24 h, read-out: Pyocyanin Inhibition No. IC50 (μM)
Procedure: Test compounds are dissolved in DMSO at 10 mM and stored at −20° C. until needed. Seven test concentrations from 0.0032 micromolar to 31.6 micromolar are used for each compound.
P. aeruginosa, strain PA14, is inoculated into 5 mL of LB broth in a 15-mL sterile glass culture tube and incubated overnight at 37° C. under shaking (˜240 rpm). The overnight culture is then diluted in LB Broth to give an OD600=0.04 (T0 culture). Colony Forming Units (CFU)/mL of the overnight culture and T0 culture are determined by a series of 1:10 serial dilutions in sterile saline. 4×20 μL of each dilution is seeded on LB agar plates and incubated at 35±2° C. for 20 hours. CFU/mL is determined from the dilution that gives 2 to 50 colonies/20 μL.
For concentration response curve (CRC) experiments, internal standard, 2-((5-nitro-1H-indol-2-yl)thio)-N-(4-phenoxyphenyl)acetamide, a compound previously identified as an MvfR inhibitor (see Example 1 of US 2014-0066454 (WO 2012/116010)), and test compounds are serially diluted in DMSO to 200 times each final concentration (0.5% DMSO fmal), and 1 μL/well is dispensed in duplicate into 2 mL wells of a 96-well deep well plate. 200 μL/well of T0 culture are added to each internal standard/test compound well. Wells containing only T0 culture (200 200 μL/well) are used to determine pyocyanin control level and wells containing only LB broth (blank wells) are also included in the plate.
The plate is sealed and incubated at 37° C. under shaking (˜700 rpm) using a microtiter shaker for 24 hours. At the end of the incubation period, the plate is centrifuged at 4,000 g for 40 minutes at room temperature, 100 μL/well of the supernatant is transferred to a 96-microtiter PS flat-bottom plate, and absorbance at 690 nm is determined using SPECTROstar® Nano microplate reader. Pyocyanin concentration (M) is determined using the equation C=A690/(ε×d), where ε is the Pyocyanin extinction coefficient, at A690 nm ε is 4,310 M^−1 cm^−1 and d is the experimentally derived pathlength. The level of pyocyanin in the presence of test compound is expressed as percentage of inhibition with respect to the control. Curve fitting and IC50 determination were carried out using a four-parameter logistic model using GraphPad Prism v.5.

| SMILES | IC50 [1] [µM] | IC50 [2] [µM] |
| --- | --- | --- |
| Cn1c(SCC(=O)Nc2ccc(Oc3ccccc3)cc2)nc2cc([N+](=O)[O-])ccc21 [Compound 23] | > 10 | 1 to 10 |
| N#Cc1ccc(NC(=O)CNc2nc3cc(Cl)ccc3s2)cc1 [Compound 72, 2-(5-Chlorobenzo[d]thiazol-2-ylamino)-N-(4-cyanophenyl)acetamide] | > 10 | > 10 |
| O=C(CNc1nc2ccc(Cl)cc2s1)Nc1ccc(Oc2cccnc2)cc1 [Compound 73, 2-((6-chlorobenzo[d]thiazol-2-yl)amino)-N-(4-(pyridin-3-yloxy)phenyl)acetamide] | > 10 | > 10 |
| N#Cc1ccc(NC(=O)CNc2nc3cc(Cl)ccc3o2)cc1 [Compound 75, 2-((5-chlorobenzo[d]oxazol-2-yl)amino)-N-(4-cyanophenyl)acetamide] | > 10 | > 10 |
| O=C(CSc1nc2cc(Cl)ccc2[nH]1)Nc1ccc(Oc2ccncc2)cc1 [Compound 76, 2-((5-chloro-1H-benzo[d]imidazol-2-yl)thio)-N-(4-(pyridin-4-yloxy)phenyl)acetamide] | < 1 | < 0.1 |
| O=C(CSc1nc2cc(Cl)ccc2[nH]1)Nc1ccc(Oc2cnccn2)cc1 [Compound 78, 2-((5-chloro-1H-benzo[d]imidazol-2-yl)thio)-N-(4-(pyrazin-2-yloxy)phenyl)acetamide] | < 1 | < 0.1 |
| Cc1ccc(Oc2ccc(NC(=O)CSc3nc4cc(Cl)ccc4[nH]3)cc2)cn1 [Compound 80, 2-((5-chloro-1H-benzo[d]imidazol-2-yl)thio)-N-(4-((6-methylpyridin-3-yl)oxy)phenyl)acetamide] | < 1 | < 0.1 |
| Cc1cncc(Oc2ccc(NC(=O)CSc3nc4cc(Cl)ccc4[nH]3)cc2)c1 [Compound 81, 2-(5-Chloro-1H-benzo[d]imidazol-2-ylthio)-N-(4-(5-methylpyridin-3-yloxy)phenyl)acetamide] | < 1 | < 0.1 |
| O=C(NCCSc1nc2cc(Cl)ccc2[nH]1)c1ccc(Oc2cccnc2)cc1 [Compound 87, N-(2-((5-chloro-1H-benzo[d]imidazol-2-yl)thio)ethyl)-4-(pyridin-3-yloxy)benzamide] | > 10 | > 10 |
| N#Cc1ccc(C(=O)NCCSc2nc3cc(Cl)ccc3[nH]2)cc1 [Compound 88, N-(2-((5-chloro-1H-benzo[d]imidazol-2-yl)thio)ethyl)-4-cyanobenzamide] | > 10 | > 10 |
| N#Cc1ccc(NC(=O)CSc2cc3cc(Cl)ccc3[nH]2)cc1 [Compound 90, 2-((5-Chloro-1H-indol-2-yl)thio)-N-(4-cyanophenyl)acetamide] | > 10 | 1 to 10 |
| O=S(=O)(CSc1nc2cc(Cl)ccc2[nH]1)Nc1ccc(Oc2cccnc2)cc1 [Compound 91, 1-((5-chloro-1H-benzo[d]imidazol-2-yl)thio)-N-(4-(pyridin-3-yloxy)phenyl)methanesulfonamide] | > 10 | > 10 |
| O=C(CCc1nc2ccc(Cl)cc2o1)Nc1ccc(Oc2cccnc2)cc1 [Compound 92, 3-(6-chlorobenzo[d]oxazol-2-yl)-N-(4-(pyridin-3-yloxy)phenyl)propanamide] | > 10 | > 10 |
| O=C(CSc1nc2cc(OC(F)F)ccc2[nH]1)Nc1ccc(Cl)cc1 [Compound 95] | > 10 | 1 to 10 |
| N#Cc1ccc(NC(=O)CSc2nc3cc(C(=O)O)ccc3[nH]2)cc1 [Compound 106] | > 10 | > 10 |
| COC(=O)c1ccc2[nH]c(SCC(=O)Nc3ccc(C#N)cc3)nc2c1 [Compound 112] | > 10 | > 10 |
| N#Cc1ccc(NC(=O)CSc2nc3ccc(-c4ncccn4)cc3[nH]2)cc1 [Compound 113] | > 10 | > 10 |
| N#Cc1ccc(NC(=O)CSc2nc3ccc(-n4cccn4)cc3[nH]2)cc1 [Compound 117] | > 10 | 1 to 10 |
| O=C(CCc1nc2ccc([N+](=O)[O-])cc2[nH]1)Nc1ccc(Cl)cc1 [Compound 134, N-(4-chlorophenyl)-3-(6-nitro-1H-benzo[d]imidazol-2-yl)propanamide hydrochloride] | 1 to 5 | 1 to 10 |
| CN(C)C(=O)Oc1ccc2[nH]c(SCC(=O)Nc3ccc(C#N)cc3)nc2c1 [Compound 135] | > 10 | > 10 |
| CN(C)C(=O)Oc1ccc2[nH]c(SCC(=O)Nc3ccc(Cl)cc3)nc2c1 [Compound 136] | > 10 | > 10 |
| N#Cc1cccc(NC(=O)CSc2nc3cc(Cl)ccc3[nH]2)c1 [Compound 138] | > 10 | > 10 |
| O=C(CSc1nc2cc(Cl)ccc2[nH]1)Nc1ccc2c(c1)OCO2 [Compound 139] | > 10 | 1 to 10 |
| COc1ccc(NC(=O)CSc2nc3c(Cl)cc(Cl)cc3[nH]2)cc1 [Compound 141] | > 10 | 1 to 10 |
| COc1ccc(NC(=O)CSc2nc3ccc(Cl)cc3[nH]2)cc1Cl [Compound 143] | 5 to 10 | 1 to 10 |
| O=C(CSc1nc2ccc(Cl)cc2[nH]1)Nc1ccc(F)cc1F [Compound 144] | > 10 | 1 to 10 |
| N#Cc1ccc(NC(=O)CCc2nc3ccc([N+](=O)[O-])cc3[nH]2)cc1 [Compound 148, N-(4-cyanophenyl)-3-(6-nitro-1H-benzo[d]imidazol-2-yl)propanamide] | 5 to 10 | 1 to 10 |
| N#Cc1ccc(NC(=O)COc2nc3ccc([N+](=O)[O-])cc3[nH]2)cc1 [Compound 149, N-(4-cyanophenyl)-2-((6-nitro-1H-benzo[d]imidazol-2-yl)oxy)acetamide] | > 10 | 1 to 10 |
| O=C(COc1nc2ccc([N+](=O)[O-])cc2[nH]1)Nc1ccc(Cl)cc1 [Compound 150, N-(4-chlorophenyl)-2-((6-nitro-1H-benzo[d]imidazol-2-yl)oxy)acetamide] | > 10 | 1 to 10 |
| O=C(CNc1nc2ccccc2[nH]1)Nc1ccc(Oc2cccnc2)cc1 [Compound 151] | > 10 | > 10 |
